The values below come from US20150030668A1 (priority 2012, published 2015).

Where two headings read alike, the source gives them in different places.

Test [1] concerns aflatoxin B1-induced hepatic nodules or tumors. Conditions: mouse, in vivo; cited from earlier work.
The conditions of test [2]: rat liver, CO-60, control (water) = 0%. The source says:
The tissue from the control animals (water) served as the 100% of the toxin remaining in the tissue. The animals receiving: • a.

In test [3] the test system is Mycobacterium tuberculosis. Conditions: NAC at 10 millimolar.

On to `N[C@@H](CCC(=O)N[C@@H](CS)C(=O)NCC(=O)O)C(=O)O` [Plain glutathione, glutathione (reduced)], for which the “decreasing the incidence or size of hepatic nodules or tumors” value in test [1] was “no benefit”. The “removal of the toxin” value in test [2] worked out at 10%; in test [2] (listed as Intravenous glutathione), 70%.

`CC(=O)N[C@@H](CS)C(=O)O` [NAC, N-acetyl cysteine]: the “CFU/ml reduced to” value in test [3] is reported as 8,000 CFU/ml.
